Source: publication PMC7900207, “Checkpoint inhibition through small molecule-induced internalization of programmed death-ligand 1” (Nature Communications, 2021)

How the values were obtained:
[1] = biological target: T1, cell surface PD-L1 (Homo sapiens, UniProt Q9NZQ7); experiment: cell-based
T1 construct: gene CD274

[2] = system: T2, PD-1/PD-L1; experiment: cells; set-up: species or system Jurkat PD-1 effector cells with PD-L1 aAPC/CHO-K1; PD-1/PD-L1 blockade bioassay, NFAT luciferase reporter, Bio-Glo luminescence; details: Homo sapiens, Jurkat; NFAT reporter bioassay
T2 construct: PD-L1 on aAPC/CHO-K1 cells, PD-1 on Jurkat effector cells (Promega)
Experimental: BioAssay is designed to measure luciferase activity showing the EC50 level of PD-1/PD-L1 blocking by small molecules targeting PD-L1 protein in the cell. PD-1 effector cells were incubated with PD-L1 aAPC/CHO-K1 cells in the absence or presence of small molecules or αPD-L1 blocking antibodies, as indicated titration according to the manufacturer’s instruction (Promega). Bio-Glo™ Reagent was added and luminescence quantified. Data were analyzed using GraphPad Prism. Small molecules were first screened in a cell-free in vitro homogeneous time-resolved fluorescence (HTRF) assay, utilizing αPD-L1 (MIH1) and αPD-1 (nivolumab) antibodies as positive controls. […] It has been reported that a small molecule can stabilize a dimer form of PD-L1 through interactions with antiparallel residues in the hydrophobic dimer interface. To test if compound A can induce intermolecular PD-L1 interactions in solution, we developed a homodimer HTRF assay. […] In this assay, preventing the PD-1/PD-L1 interaction results in a release of constitutive NFAT reporter suppression and increases luciferase activity (relative luminescence units). […] We determined if compound A cellular bioassay potency could translate into immunomodulatory effects on primary human immune cells. […]

[3] = biological target: T3, programmed death-ligand 1 (PD-L1, hPD-L1) (Homo sapiens, UniProt Q9NZQ7); experiment: co-crystal structure at […] Å (PD-L1 homodimer); IC50 from PD-1/PD-L1 HTRF assay; PD-L1/PD-L1 dimerization HTRF; format: binding
T3 construct: gene CD274; human PD-L1(18–134) with 6xHis carboxyl-terminal tag (crystal structure); recombinant Human PD-L1-His (HTRF)
T3 sequence (Q9NZQ7 18-134): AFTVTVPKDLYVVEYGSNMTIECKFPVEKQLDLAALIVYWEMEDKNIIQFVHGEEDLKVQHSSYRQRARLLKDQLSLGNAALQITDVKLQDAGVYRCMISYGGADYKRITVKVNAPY

T1 sequence (Q9NZQ7 whole entry): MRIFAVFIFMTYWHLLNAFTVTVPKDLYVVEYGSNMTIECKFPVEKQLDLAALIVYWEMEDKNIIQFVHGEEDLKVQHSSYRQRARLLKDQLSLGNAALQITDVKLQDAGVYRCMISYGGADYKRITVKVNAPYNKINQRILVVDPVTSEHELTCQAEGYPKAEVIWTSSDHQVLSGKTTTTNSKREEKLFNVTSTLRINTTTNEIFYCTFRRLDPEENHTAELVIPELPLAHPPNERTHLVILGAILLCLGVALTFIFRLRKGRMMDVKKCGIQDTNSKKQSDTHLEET

IC50 [1] [nM]	EC50 [2] [nM]	SMILES	IC50 [3] [nM]
2.1	17.9	Cc1c(NC(=O)c2ccc(CNCCO)cn2)cccc1-c1cccc(NC(=O)c2ccc(CNCCO)cn2)c1C [ARB-272572]	
		Cc1c(NC(=O)c2ccc(CNCCO)cn2)cccc1-c1cccc(NC(=O)c2ccc(CNCCO)cn2)c1C [compound A, ARB-272572]	0.4
